The text below walks through data of paper PMC9501280, “Anti-Inflammatory Activity of Soluble Epoxide Hydrolase Inhibitors Based on Selenoureas Bearing an Adamantane Moiety” (International Journal of Molecular Sciences, 2022).

For one data set, the system named is E. coli MG1655 pXen7. Put plainly: Constitutive lux-biosensor, general toxicity. The class given is cell-based, Escherichia coli. The conditions noted are these: compound at 1 mM; decrease ascribed to shielding of bioluminescence. The protocol:
Importantly, all the studied compounds are poorly soluble in water and can form a suspension at 1 mM; moreover, compound 4a at concentrations above 100 μM presents a substance of dark color and is capable of the partial shielding of bioluminescence.
pColD-lux―PcolD is induced by the SOS response; pDps―Pdps is activated in the presence of DNA-oxidizing agents; pSoxS-lux―PSoxS is induced in the presence of superoxide anion radicals; pOxyR-lux―PoxyR is induced in response to the appearance of hydrogen peroxide or organic peroxides; pAlkA-lux―PalkA is induced in response to DNA alkylation. pXen7 contains P. luminescens ZM1 lux genes controlled by its own promoter, which was used as a constitutive.
The bioluminescence of cells was measured using a Synergy HT luminometer (Biotek, Winooski, VT, USA) at room temperature. Lux biosensors based on E. coli were grown to an early logarithmic phase (OD ≈ 0.1) to achieve a background luminescence approximately 100–1000 RLU at the beginning of the measurements. Lux biosensors based on B. subtilis were grown to a logarithmic phase with an optical density OD ≈ 0.6 (and background luminescence of about 10–500 RLU). Biosensor cell cultures were divided into portions of 200 μL in a 96-well plate. […] The kinetics of change in luminescence was measured at room temperature.

The subject of data set [1] is human fibroblast cells (MRC-5). Put plainly: MTT test with human fibroblast cells. The class given is cell-based. The conditions noted are these: MRC5, 72 h, read-out: EC50 ± SEM, MRC-5. The protocol: The studied compounds were added in concentrations of 1, 3, 6, 12, 25, 50, and 100 μM.
Human fibroblast cells (MRC-5) were used in this study. The cells were cultured in the DMEM medium that contained 10% embryonic calf serum in a CO2 incubator at 37 °C. The tested compounds were dissolved in DMSO and added to the cellular culture at the required concentrations. Three wells were used for each concentration. The cells that were incubated without the compounds were used as a negative control, and doxorubicin was used as the positive one. Cells were placed on 96-well microliter plates and cultivated at 37 °C in 5% CO2/95% air for 72 h. The cell viability was assessed through an MTT (3-(4,5-dimethylthiazol-2-yl)-2,5-phenyl-2H-tetrazolium bromide) conversion assay. A total of 1% MTT was added to each well. Three hours later, isopropanol was added and mixed for 15 min. Optical density (OD) of the samples was measured on a ThermoFischer multi-well spectrophotometer at a wavelength of 450 nm. […] The experimental results are given as average values obtained from three independently conducted experiments.

Data set [2] can be described thus: LDH release cytotoxicity on peritoneal macrophages. The class given is cell-based, mice. The settings on record: male, C57bl/6j, mouse; 24 h incubation; read-out: LDH CC50 ± SE. The protocol: (§1) Peritoneal macrophages (PM) were isolated from the peritoneal exudate of 30 male C57bl/6j mice. To accumulate PM, 1 mL of 3% peptone solution was injected intraperitoneally. After 3 days, the mice were euthanized by cervical dislocation. Cells of peritoneal exudate were obtained by aseptic washing of the abdominal cavity with 5 mL of sterile Hanks’s solution (+4–6 °C) without calcium and magnesium ions. The total number and viability of cells were assessed in a Goryaev counting chamber (Russia) with a 0.4% trypan blue staining (Sigma-Aldrich, St. Louis, MO, USA). The cell concentration was adjusted to 1.0 × 10^6 cells/mL in DMEM (Gibco) supplemented with 2 mM L-glutamine (Gibco), 10% heat-inactivated fetal bovine serum (BioClot, Passau, Germany), 100 U/mL penicillin and […] streptomycin (Gibco) and plated 200 μL/well in 96-well transparent plates (SPL Life Sciences Co., Ltd., Pochon, Korea). After 2 h at 37 °C in a humidified atmosphere with 5% CO2, wells were washed to remove nonadherent cells. After 24 h of incubation, 20 μL of the supernatants were substituted with 20 μL of solutions of the test compounds, followed with E. coli O127:B8 LPS (100 ng/mL final concentration) after 30 min. Experiments were run in 3 independent replicates.
The activity of lactate dehydrogenase (LDH) in a cell culture medium served as a marker of membrane permeability and cell death. Aliquots of supernatants were taken after 24 h of inoculation with test compounds, mixed with 250 μL of […] NADH solution in 54 mM phosphate-buffered saline (pH 7.5). Then, 25 μL of a 6.48 mM pyruvate solution was added to the mixture. The optical density was followed at a wavelength of 340 nm for 20 min. The MTT test was performed 24 h after the incubation of cells with the tested compounds. […] The plates were shaken at room temperature for 10 min, and the optical density was measured in a microplate reader Infinite M200 PRO (Tecan Group Ltd., Männedorf, Switzerland) at a wavelength of 565 nm.

A further data set relates to E. coli PQ37. In words: SOS chromotest. Format: cell-based. The protocol: For the final safety check of selenoureas, the SOS chromotest was carried out. […] The results are presented as the mean value of induction factor I (c) ± SEM based on the results of three independent experiments, each of which included three replicates (Table 5).
The SOS chromotest was carried out according to the standard procedure, with recommended additions. The E. coli PQ37 strain was provided by P. Quillardet (Paris, France). The test compounds were dissolved in dimethyl sulfoxide (DMSO) (also used as a negative control) and added to the bacterial medium in the required concentrations; the concentration of the injected solutions was 1% by volume.

The nature of data set [3]: MTT cytotoxicity on peritoneal macrophages. Format: cell-based, mice. The conditions noted are these: male, C57bl/6j, mouse; 24 h incubation; read-out: MTT CC50 ± SE. The protocol: as §1
(§2) The activity of lactate dehydrogenase (LDH) in a cell culture medium served as a marker of membrane permeability and cell death. Aliquots of supernatants were taken after 24 h of inoculation with test compounds, mixed with 250 μL of […] NADH solution in 54 mM phosphate-buffered saline (pH 7.5). Then, 25 μL of a 6.48 mM pyruvate solution was added to the mixture. The optical density was followed at a wavelength of 340 nm for 20 min. The MTT test was performed 24 h after the incubation of cells with the tested compounds. Briefly, 20 μL of MTT solution was added to each well and incubated at 37 °C in a humidified atmosphere containing 5% CO2 for 4 h. The culture medium was aspirated, the cells were lysed and formazan crystals dissolved in 150 μL of DMSO. The plates were shaken at room temperature for 10 min, and the optical density was measured in a microplate reader Infinite M200 PRO (Tecan Group Ltd., Männedorf, Switzerland) at a wavelength of 565 nm.

For data set [4], the system named is C57bl/6j peritoneal macrophages. In words: MTT cytotoxicity on peritoneal macrophages. The conditions noted are these: Mus musculus, Peritoneal macrophage, read-out: EC50 ± SEM, C57bl/6j. Format: cell-based, mice. The protocol: as §1, §2

Consider `[Se]=C(Nc1ccccc1)NC12CC3CC(CC(C3)C1)C2` [4a, 1-(Adamantan-1-yl)-3-phenylselenourea], for which, in the data set on E. coli MG1655 pXen7, the “luminescence decrease coefficient of the pXen7 biosensor” value came to 0.29 ± 0.08. Besides, the EC50 in data set [1] is 3.38 ± 0.49 µM; in data set [4] it was 7.5 ± 1.9 µM. For the same compound, the CC50 at 24 h in data set [2] was 29.4 ± 8.5 µM; in data set [3], 7.5 ± 1.9 µM. Besides, the “genotoxic activity (in words)” value with E. coli PQ37 (SOS chromotest / lux-biosensors) was “does not exhibit genotoxic properties”. The “I(c) ± SE, 10 µM” value in the data set with E. coli PQ37 (induction factor, compound 10 µM) is 1.03 ± 0.13. In the data set on E. coli PQ37 (induction factor, compound 25 µM), the “I(c) ± SE, 25 µM” value is 1.09 ± 0.14. Also, the “I(c) ± SE, 50 µM” value in the data set with E. coli PQ37 (induction factor, compound 50 µM) is 1 ± 0.15. In addition, the “I(c) ± SE, 100 µM” value in the data set on E. coli PQ37 (induction factor, compound 100 µM) came out at 1.08 ± 0.09.
